Source: paper PMC3665846, “Evolution of a Potential Hormone Antagonist following Gene Splicing during Primate Evolution” (PLoS ONE, 2013)
Blank lines part the entries; values can stand above or below the substance they belong to. No end group written: not given here.

Key:
CCKB receptor [1] = test: CCKB receptor luciferase reporter assay, agonism; type: cell-based; conditions: 18 h
Procedure: (§1) HEK293T cells seeded in 24-well plates were co-transfected by various luciferase reporters (30 ng), the pSV-β-Gal plasmid (3 ng), and the CCKA or CCKB receptor (30 ng). After 1 day, cells were treated in serum-free media for another 18 h with increasing doses of the CCK-8 or CCKsv peptide. For the estimation of antagonistic activities, cells were pre-incubated (30 min.) with the CCKsv peptide before treatment with CCK8 for 18 h. Luciferase activities were determined using luciferase assay kits (Promega) and normalized using β-galactosidase activities. All experiments were performed at least three times in triplicates. Data were analyzed using Graphpad Prism 5.0.

CCKA receptor [2] = test: CCKA receptor luciferase reporter assay, agonism; type: cell-based; conditions: 18 h, CRE-, SRE-, NFAT-
Procedure: as §1

SK-N-MC cells = test: Ewing tumor cell growth, SK-N-MC, crystal violet staining; type: cell-based, human; conditions: CCK-8 0.1 uM, 6 days; for suppression of CCK-stimulated growth, SK-N-MC: serum-free, CCKsv 30 min pre-treatment, at least 3 independent experiments
Procedure: (§2) SK-N-MC and SK-PN-DW cells (1×10^5) were plated in 12-well plates and allowed to attach for 24–36 h. Cells were then cultured in serum-free media with 0.1 uM of the CCK-8 peptide with or without the CCKsv peptide. Fresh media containing peptides were replaced every two days. […] Cell growth was determined by crystal violet staining.

SK-PN-DW cells = test: Ewing tumor cell growth, SK-PN-DW, crystal violet staining; type: cell-based; conditions: CCK-8 0.1 uM, 6 days; for suppression of CCK-stimulated growth, SK-PN-DW: serum-free, CCKsv 30 min pre-treatment, at least 3 independent experiments
Procedure: as §2

[3] = system: release of pancreatic enzymes and the contraction of the gallbladder; conditions: ref [10]–[12]; cited from earlier work
Source text: Alternative splicing allows the generation of various gene products with different functions from a single gene and is a major mechanism of generating protein diversity in eukaryotes [1]–[5]. At least half, or more, of mammalian genes can be alternatively spliced, [2]. Thus, alternative splicing emerges as a major mechanism of generating protein diversity and splicing of coding regions in peptide hormone genes often results in additional protein domains. Calcitonin and calcitonin-related polypeptide represent the classical example of novel hormone evolution from the same gene ...

[4] = system: various cancer cell lines; conditions: ref [23]–[27]; cited from earlier work
Procedure: Because treatment with a CCK antagonist inhibits proliferation of Ewing tumor cells, CCK antagonist could represent a new therapeutic approach in the management of Ewing's tumor patients. To further confirm the potential antagonist function of CCKsv, we checked if CCKsv could inhibit Ewing tumor cell growth stimulated by CCK. Two Ewing tumor cell lines (SK-N-MC and SK-PN-DW) were cultured with the CCK-8 peptide (0.1 uM) in the presence or absenc ...

CCKB receptor [5] = test: CCKB receptor luciferase reporter assay, antagonism of CCK-8; type: cell-based
Procedure: as §1

CCKA receptor [6] = test: CCKA receptor luciferase reporter assay, antagonism of CCK-8; type: cell-based; conditions: CCKsv 0.1 uM or 1 uM, 30 min pre-incubation
Procedure: as §1

LGR7 = test: relaxin-stimulated CRE-luciferase activity in LGR7-expressing cells (specificity control); type: cell-based; conditions: CCKsv 0.1 uM or 1 uM, co-treatment with relaxin, Fig. S6

Substance: CCK-8: CCK-8 peptide purchased from Phoenix Pharmaceuticals Inc. [reference compound]
stimulation of luciferase reporters by CCK-8 via CCKB (CCKB receptor [1]; HEK293T cells co-transfected with reporter, pSV-β-Gal and CCKB, serum-free, CRE-, SRE-, NFAT-, SRF-RE reporters screened, normalized to β-galactosidase, at least three times in triplicates): stimulation of CRE-, SRE- and SRF-RE reporters | responsiveness to CCK-8 of cells with CRE reporter and CCKB receptor (CCKB receptor [1]; HEK293T, CRE-luciferase, CCKB, compared with other reporter/receptor combinations (Fig. 3C)): most responsive to CCK-8 peptide stimulation | stimulation of luciferase reporters by CCK-8 via CCKA (CCKA receptor [2]; HEK293T cells co-transfected with reporter, pSV-β-Gal and CCKA, serum-free, SRF-RE reporters screened, normalized to β-galactosidase, at least three times in triplicates): stimulated CRE- and SRF-RE reporters via CCKA | Ewing tumor cell growth with CCK-8, SK-N-MC (SK-N-MC cells; serum-free media, replaced every two days, Fig. 4A): growth stimulated by CCK-8 peptide | Ewing tumor cell growth with CCK-8, SK-PN-DW (SK-PN-DW cells; serum-free media, replaced every two days, Fig. 4B): growth stimulated by CCK-8 peptide

Substance: Cholecystokinin [CCK]
release of pancreatic enzymes and gallbladder contraction [3]: induce the release of pancreatic enzymes and the contraction of the gallbladder | cell proliferation in cancer cell lines [4]: induces cell proliferation

suppression of CCK-8-stimulated CRE luciferase activity (CCKB receptor [5]; Fig. 3C, HEK293T + CCKB, CRE reporter, 1 uM CCKsv (30 min pre-incubation), CCK-8 30 nM, 18 h): ~60% | inhibition of CCK-8-stimulated CRE luciferase activity, CCKB (CCKB receptor [5]; Fig. 3C, HEK293T, CCKsv 0.1 uM or 1 uM, 30 min pre-incubation, increasing doses of CCK-8, 18 h): inhibited | suppression of CCK-8-stimulated SRF luciferase activity (CCKB receptor [5]; Fig. 3D, HEK293T + CCKB, SRF reporter, 1 uM CCKsv (30 min pre-incubation), CCK-8 30 nM, 18 h): ~60% | inhibition of CCK-8-stimulated SRF luciferase activity, CCKB (CCKB receptor [5]; Fig. 3D, HEK293T, CCKsv 0.1 uM or 1 uM, 30 min pre-incubation, increasing doses of CCK-8, 18 h): inhibited | inhibition of CCK-8-stimulated SRE luciferase activity, CCKB (CCKB receptor [5]; Fig. 3E, HEK293T, CCKsv 0.1 uM or 1 uM, 30 min pre-incubation, increasing doses of CCK-8, 18 h): inhibited | inhibition of CCK-8-stimulated CRE luciferase activity, CCKA (CCKA receptor [6]; Fig. 3A, HEK293T, increasing doses of CCK-8, 18 h): inhibited | inhibition of CCK-8-stimulated SRF luciferase activity, CCKA (CCKA receptor [6]; Fig. 3B, HEK293T, increasing doses of CCK-8, 18 h): inhibited
Substance: GKNAASPSLTSALVPRLPMLTLFSSASLMGMTSL-amidated (GKNAASPSLTSALVPRLPMLTLFSSASLMGMTSL-NH2) [CCKsv, splicing variant of human CCK; predicted mature peptide chemically synthesized, C-terminally amidated]
stimulation of G protein pathways by CCKsv via CCKB (agonism) (CCKB receptor [1]; HEK293T + CCKB, CRE-, SRE-, NFAT-, SRF-RE-luciferase (Gs, Gi, Gq, G12), Fig. S5): not capable of stimulating different G proteins (Gs, Gi, Gq, and G12) | stimulation of G protein pathways by CCKsv via CCKA (agonism) (CCKA receptor [2]; HEK293T + CCKA, SRF-RE-luciferase (Gs, Gi, Gq, G12), Fig. S5): not capable of stimulating different G proteins (Gs, Gi, Gq, and G12) | suppression of CCK8 actions by CCKsv pretreatment, CCKB (CCKB receptor [5]; HEK293T + CCKB, CCKsv 0.1 uM or 1 uM, 30 min pre-incubation, then CCK-8 (various doses) 18 h, luciferase): dose-dependent suppression of CCK8 actions | suppression of CCK8 actions by CCKsv pretreatment, CCKA (CCKA receptor [6]; HEK293T + CCKA, then CCK-8 (various doses) 18 h, luciferase): dose-dependent suppression of CCK8 actions | suppression of CCK-stimulated growth, SK-N-MC (SK-N-MC cells; 0.1 uM CCKsv, Fig. 4A): 22% | suppression of CCK-stimulated growth, SK-N-MC (SK-N-MC cells; 1 uM CCKsv, Fig. 4A): 38% | effect of CCKsv on CCK-stimulated growth, SK-N-MC (SK-N-MC cells; CCKsv 0.1 uM or 1 uM): dose-dependently reduced CCK-stimulated growth | effect on luciferase activity stimulated by relaxin (LGR7): did not alter relaxin signaling | suppression of CCK-stimulated growth, SK-PN-DW (SK-PN-DW cells; 0.1 uM CCKsv, Fig. 4B): 18% | suppression of CCK-stimulated growth, SK-PN-DW (SK-PN-DW cells; 1 uM CCKsv, Fig. 4B): 31% | effect of CCKsv on CCK-stimulated growth, SK-PN-DW (SK-PN-DW cells; CCKsv 0.1 uM or 1 uM): dose-dependently reduced CCK-stimulated growth
